Reference: paper PMC11404609, “Gut microbiota-mediated C-sulfonate metabolism impairs the bioavailability and anti-cholestatic efficacy of andrographolide” (Gut Microbes, 2024)

Tests used:
intestinal flora of mice = experiment: Co-culturing AP with cecum samples from mice; format: in vitro ADME; settings: AP 10 μg/mL, anaerobic, 37°C, 6 h
Procedure: The cecum contents from mice were collected and mixed with sterilized anaerobic medium in a ratio of 1.0 g to 10 mL, with gentle agitation. After filtered, the mixed medium containing the intestinal flora was placed in an anaerobic environment and preincubated at 37°C for 30 min before use. Mixed medium with or without APS reductase inhibitor bromocriptine mesylate (20 μg/mL) was incubated with AP (10 μg/mL), while autoclaved mixed medium without APS reductase inhibitor served as the control. Incubation was performed in a shaking incubator at 37°C for 6 h, with strict maintenance of anaerobic condition throughout the process.[44] Similarly, D. piger (0.2 mL, 1 × 10^8 CFU/mL) with or without inhibitor, was incubated with AP for 0, 3, 6, and 12 h, with autoclaved D. piger without inhibitor serving as the control. The reaction was terminated by adding cold methanol contained IS. And then samples were analyzed by UPLC-MS/MS to detect the concentrations of AP and APM. Concentrations of APS reductase and HSO3^− were also determined at the end of incubation.
For the determination of APS reductase concentration, the supernatant from mouse cecum contents and the D. piger strain were assessed using microorganism APS reductase elisa assay kit (Shanghai Senxingyan Biotechnology Co., Ltd., China), following the instructions provided with the kit. For the determination of HSO3^− concentration, cecum contents from mice or rats were weighed and homogenized in five volumes of normal saline (based on tissue weight). The homogenate was then subjected to centrifugation at 13,000 rpm and 4°C for 15 min. The supernatant (or perfusate) was collected and mixed with 0.2% formaldehyde, 0.05% basic fuchsin, and 0.01% EDTA-Na2 in a ratio of 1:1:1:9 under acidic conditions. To establish a standard curve, different concentrations of NaHSO3 were used. Subsequently, the absorbance of the resulting solutions was measured at a wavelength of 560 nm after 40 min.

gut microbiota = experiment: Shotgun metagenomic sequencing of cecum samples after AP treatment; format: in vivo; settings: mice cecum, AP 400 mg/kg, oral, 14 d
Procedure: Shotgun metagenomic sequencing was performed using cecum samples from mice after AP treatment (400 mg/kg, oral, 14 d). DNA was extracted by a PF Mag-Bind DNA Kit (Omega Bio-tek, USA) and qualified by 1% Agarose gel electrophoresis. Extracted DNA was fragmented by Covaris M220 (Gene Company Limited, China) and screened at approximately 400 bp fragments for paired-end library construction. NEXTFLEX® Rapid DNA-Seq (Bioo Scientific, USA) was used to build paired-end library construction. The Illumina NovaSeq 6000 (Illumina, USA) sequencing platform was used for metagenomic sequencing. Fastp was used to perform quality cropping on the adapter sequences of the 3’ and 5’ ends of reads, preserving high-quality paired-end reads and single-end reads. BWA (version 0.7.17) was used to construct the reads with the host DNA sequence and remove contaminated reads with high alignment similarity. MEGAHIT (version 1.1.2) was used to splice and assemble the optimized sequence. SOAP aligner (version soap2.21release) was used to compare the high-quality reads of each sample with the non-redundant gene set (95% identity) and calculate the abundance information of genes in the corresponding samples. DIAMOND (version 2.0.11) was used to annotate species taxonomy, and KEGG function. Data was deposited into the NCBI Sequence Read Archive (SRA) database.

[1] = Tissue distribution of AP and APM in mice; format: in vivo
Procedure: Control and ABX rats were orally administered a single dose of AP at 120 mg/kg. Control, ABX and germ-free C57BL/6J mice were orally administered a single dose of AP at 100 mg/kg. After 90 min of AP administration, all animals were euthanized, and blood and tissue samples were collected for subsequent analysis.
After 360 min of AP treatment, all mice were euthanized, and tissue samples were collected for subsequent analysis. […]
An ACQUITY^TM UPLC-MS/MS system equipped with an ACQUITY^TM UPLC BEH C18 Column (50 × 2.1 mm I.D., 1.7 μm, Waters, Milford, MA, USA) was utilized for the quantification of AP and APM as previously described.[47] Briefly, the detection samples (50 μL) were mixed with 50 μL of IS (50 ng/mL). AP and APM were extracted by 400 μL cold methanol. Supernatants were dried under nitrogen stream. Then, the residue was dissolved with 50% methanol in water, centrifuged for 30 min at 13,000 rpm, and 10 µL of the supernatant was subjected to UPLC-MS/MS analysis. The mobile phases consisted of eluent A (water) and eluent B (methanol) with a gradient elution as follows: 0–0.8 min, 10% B; 0.8–1.2 min, 10–90% B; 1.2–5.0 min, 90% B; 5.0–5.5 min, 90–10% B; 5.5–7.0 min, 10% B. The flow rate was 0.3 mL/min and the injection volume of all samples was 10 μL. The quantification of AP, APM and IS was performed by UPLC-MS/MS using an MRM method with the transitions of m/z 349.1→m/z 287.2 for AP, m/z 413.2→m/z 287.2 for APM, m/z 269→m/z 133 for IS.
AP was administered intravenously and orally to detect the production of the C-sulfonate metabolite APM. In tissue distribution experiment, rats were given AP intravenously (24 mg/kg) or orally (120 mg/kg), while mice received AP intravenously (20 mg/kg) or orally (100 mg/kg). After a 90-minute interval, the animals were sacrificed, and their liver, kidneys, small intestine, and colon were collected for analysis. In pharmacokinetic studies, rats were administered 24 mg/kg of AP intravenously or 120 mg/kg of AP by oral gavage. Blood samples were collected at predetermined time intervals (0, 5, 10, 20, 30, 40, 60, 90, 120, 180, 240, 360, and 480 min), as described, to detect the content of AP and APM by UPLC-MS/MS.

SULTs = experiment: AP incubation with liver S9 fraction (SULT-mediated metabolism); format: in vitro ADME, human, rat, mouse; settings: HLS9, RLS9, MLS9 with PAPS, 37°C
Procedure: A sulfonate reaction system and incubation procedures were followed those of a previous study^4. Briefly, the reaction mixture (total volume 200 μL) consists of 10 μL enzymes (MLS9, RLS9 and HLS9 at different concentrations), 5 μL magnesium chloride (1 mM), 5 μL 3’-phosphoadenosine-5’-phosphosulfate (PAPS, 0.05 mM), 178 μL potassium phosphate (KPI) buffer (44.5 mM, pH 7.4) and 2 μL AP at different concentrations. The mixture was prepared in triplicates and incubated in a shaking water bath at 37°C for various durations. The reactions were terminated by the addition of acetonitrile solution.

conversion of AP into APM by the intestinal flora (intestinal flora of mice): notable conversion
concentration of AP in tissues ([1]; ABX-treated mice vs Control, AP 100 mg/kg oral): notably increased
C-sulfonate metabolism of AP ([1]; germ-free mice, AP 100 mg/kg oral): suppressed
AP concentration in tissues such as the liver ([1]; mice colonized with D. piger vs Control, AP 100 mg/kg p.o.): notable reduction
concentration of AP in the intestine and liver ([1]; mice of pharmacological experiment, AP 200 mg/kg, following ABX treatment vs Control): significantly increased
AP levels in mouse tissues ([1]; mice, AP 100 mg/kg p.o., Na2SO4 pre-treatment vs Control): decreased AP levels
AP levels in mouse tissues ([1]; mice, AP 100 mg/kg p.o., bromocriptine mesylate pre-treatment vs Control): elevated AP levels
AP exposure within the small intestine and liver ([1]; mice, AP 200 mg/kg p.o. with APS reductase inhibitor vs without): increase in AP exposure
production of the metabolite APM in SULT-mediated metabolism incubation system (SULTs): absence of detectable production
SMILES: C=C1CC[C@@H]2[C@](C)(CO)[C@H](O)CC[C@@]2(C)[C@@H]1C/C=C1/C(=O)OC[C@H]1O [AP, Andrographolide]
expression of APS reductase / growth of APS reductase-producing gut microbiota (gut microbiota): did not induce significant alterations
expression of Enterococcus, Lactobacillus, and Escherichia bacteria (gut microbiota): did not suppress
